Experimental data published in patent US8841413B2, “Antidiabetic compounds” (Cadila Healthcare Limited, priority 2006, dated 2014).
Read-outs that look alike come from different tables or passages of the source.

Key:
DPP IV = DPP IV (Homo sapiens, UniProt P27487); test: Stability against DPP IV enzyme; type: in vitro ADME; conditions: 2 μM, 37° C.; for half-life: read-out: half-life (t1/2) with DPP-IV enzyme
Method: (§1) Reactions were terminated by the addition of TFA/H2O (15 mL, 10% (v/v)). […] The column was equilibrated with TFA/H2O, at a flow rate of 1 mL/min. […] The absorbance was monitored at 206 nm using UV detector and peaks were collected manually prior to ESI-MS analysis.

[1] = Stability against liver microsomes; type: in vitro ADME, human; conditions: 2 μM, 37° C.; for half-life: human, microsomes, read-out: half-life (t1/2) with liver microsomes
Method: as §1

[2] = Stability in simulated gastric fluid; type: in vitro ADME; conditions: 2 μM, 37° C., pH 1.5, pepsin; for half-life: simulated gi fluid, read-out: half-life (t1/2) in simulated gastric fluid
Method: as §1

Human GLP-1 receptor = target: T1, Human GLP-1 receptor (Homo sapiens, UniProt P43220); type: cell-based
T1 construct: The full-length cDNA was cloned in pcDNA3.1(+); expressed in transfected cells
T1 sequence (P43220 24-463): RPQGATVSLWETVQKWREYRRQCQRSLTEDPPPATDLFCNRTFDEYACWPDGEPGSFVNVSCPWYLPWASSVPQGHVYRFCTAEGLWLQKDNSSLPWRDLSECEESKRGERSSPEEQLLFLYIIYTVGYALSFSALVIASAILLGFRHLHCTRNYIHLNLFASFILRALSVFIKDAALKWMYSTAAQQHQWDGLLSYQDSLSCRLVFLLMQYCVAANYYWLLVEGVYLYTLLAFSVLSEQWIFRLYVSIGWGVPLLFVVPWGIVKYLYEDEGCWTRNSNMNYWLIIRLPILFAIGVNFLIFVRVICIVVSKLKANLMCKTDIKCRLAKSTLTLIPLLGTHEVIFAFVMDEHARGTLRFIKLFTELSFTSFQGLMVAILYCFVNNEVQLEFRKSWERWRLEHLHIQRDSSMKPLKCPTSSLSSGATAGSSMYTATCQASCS
Method: The novel peptidomimetics were screened for Human GLP-1 receptor (HGLP-1 R) agonist activity (in vitro), using the cAMP cell-based assay, in stably transfected CHO/human GLP1R cells. […] CHO cells were grown in Ham's F12 medium containing L-Glutamine (2 mM), HEPES (25 mM), NaHCO3 (1.1 g/L) and supplemented with NewBorn Calf Serum (NBCS; 10%), Penicillin (50 U/ml (v/v)) and Streptomycin (50 ug/ml (v/v)). Cells were split every 3 days 1:8.
The cDNA encoding the human GLP-1 receptor was isolated by RT-PCR according to standard protocol. The full-length cDNA was cloned in pcDNA3.1(+). […] Clones expressing the receptor were generated by G418 (800 μg/ml active, Sigma) selection. The stable clones were thereafter maintained at 500 ug/ml (G418). The selected clone was used between passages 9-25 for cAMP assays.
The trypsin was inactivated using Ham's F12 medium containing 10% NBCS and the cells were suspended in 2 ml of complete medium. […] The medium was aspirated off from the 12 well plate and the cells were washed once using Ham's F12 (plain). […] The cells were incubated with the test compounds for 30 min in humidified atmosphere and 37° C. After the incubation, the medium was removed and cells were washed once with plain Ham's F12. Subsequently, the cells were lysed by adding 500 ul of ice cold 0.1 N HCl to each well and shaking for 30 minutes at 200 rpm. […] The total cAMP was estimated from the sample according to the manufacturer's protocol using Cyclic AMP immunoassay kit (R&D systems, Minneapolis. MN). The remaining supernatant is used to determine the protein concentration using micro BCA (Sigma). Data is calculated as percent of control (Vehicle: water) and expressed as Mean±SD.

[3] = Stability in human plasma; type: in vitro ADME; conditions: 2 μM, 37° C.; for half-life: human, plasma, read-out: half-life (t1/2) in human plasma
Method: as §1

[4] = Stability in simulated intestinal fluid; type: in vitro ADME; conditions: 2 μM, 37° C., pH 7.5; for half-life: simulated gi fluid, read-out: half-life (t1/2) in simulated intestinal fluid
Method: as §1

Sequence of DPP IV (P27487 whole entry, species assumed): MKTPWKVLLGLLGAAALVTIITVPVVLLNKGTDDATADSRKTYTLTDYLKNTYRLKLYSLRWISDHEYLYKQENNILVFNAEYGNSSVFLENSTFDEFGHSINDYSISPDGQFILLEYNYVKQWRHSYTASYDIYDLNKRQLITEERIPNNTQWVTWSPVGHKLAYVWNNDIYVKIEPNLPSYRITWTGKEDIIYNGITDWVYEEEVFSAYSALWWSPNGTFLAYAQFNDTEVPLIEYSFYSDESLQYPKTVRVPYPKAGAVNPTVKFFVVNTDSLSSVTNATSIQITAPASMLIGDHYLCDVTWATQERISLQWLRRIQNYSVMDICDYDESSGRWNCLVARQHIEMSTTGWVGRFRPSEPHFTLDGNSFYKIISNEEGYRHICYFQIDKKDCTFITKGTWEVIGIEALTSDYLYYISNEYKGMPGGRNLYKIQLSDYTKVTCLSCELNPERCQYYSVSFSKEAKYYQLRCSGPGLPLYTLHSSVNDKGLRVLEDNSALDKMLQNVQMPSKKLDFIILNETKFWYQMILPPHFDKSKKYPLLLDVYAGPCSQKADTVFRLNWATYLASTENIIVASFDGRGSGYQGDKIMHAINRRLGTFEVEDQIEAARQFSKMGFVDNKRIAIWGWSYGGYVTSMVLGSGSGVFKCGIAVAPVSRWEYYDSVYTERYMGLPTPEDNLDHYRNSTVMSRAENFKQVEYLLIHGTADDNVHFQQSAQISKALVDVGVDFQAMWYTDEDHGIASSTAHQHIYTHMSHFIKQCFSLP

% degradation in 24 h when incubated with DPP-IV enzyme (DPP IV) [%] | half-life (DPP IV) [h] | % degradation in 24 h when incubated with liver microsomes [1] [%] | half-life [1] [h] | % degradation in 24 h when incubated with simulated gastric fluid [2] [%] | half-life [2] [h] | Human GLP-1 R activity (cAMP release), % activity with respect to control (Human GLP-1 receptor; 1 nM test compound) [%] | Human GLP-1 R activity (cAMP release), % activity with respect to control (Human GLP-1 receptor; 10 nM test compound) [%] | Human GLP-1 R activity (cAMP release), % activity with respect to control (Human GLP-1 receptor; 100 nM test compound) [%] | Human GLP-1 R activity (cAMP release), % activity with respect to control (Human GLP-1 receptor; 1 μM test compound) [%] | Human GLP-1 R activity (cAMP release), % activity with respect to control (Human GLP-1 receptor; 10 μM test compound) [%] | % degradation in 24 h when incubated with human plasma [3] [%] | half-life [3] [h] | % degradation in 24 h when incubated with simulated intestinal fluid [4] [%] | half-life [4] [h] | half-life (t1/2) with liver microsomes [1] | SMILES
00 | > 24 | 82 | 2 | 49 | 4 | 78 ± 0.12 | 99 ± 0.15 | 99 ± 0.18 | 99 ± 0.03 | 99 ± 0.09 | 00 | > 24 | 00 | > 24 |  | CCc1cc(OC)ccc1-c1ccc(CC(NC(=O)[C@H](CC(=O)O)NC(=O)[C@H](CO)NC(=O)[C@@H](NC(=O)[C@H](Cc2ccccc2)NC(=O)[C@@H](NC(=O)CNC(=O)[C@H](CCC(N)=O)NC(=O)C2(NC(=O)[C@@H](N)Cc3c[nH]cn3)CC2)[C@@H](C)O)[C@@H](C)O)C(=O)NC(Cc2ccc(-c3ccccc3C)cc2)C(N)=O)cc1 (single isomer, unassigned) [compound 17]
00 | > 24 | 81 | 2 | 52 | 4 | 86 ± 0.11 | 99 ± 0.09 | 99 ± 0.06 | 99 ± 0.14 | 99 ± 0.19 | 00 | > 24 | 00 | > 24 |  | CCc1cc(OC)ccc1-c1ccc(CC(NC(=O)[C@H](CC(=O)O)NC(=O)[C@H](CO)NC(=O)[C@@H](NC(=O)[C@H](Cc2ccccc2)NC(=O)[C@@H](NC(=O)CNC(=O)[C@H](CCC(N)=O)NC(=O)C2(NC(=O)[C@@H](N)Cc3c[nH]cn3)CC2)[C@@H](C)O)[C@@H](C)O)C(=O)NC(Cc2ccc(-c3ccccc3C)nc2)C(N)=O)cc1 (single isomer, unassigned) [compound 18]
00 | > 24 | 84 | 2 | 43 | 4 | 96 ± 0.02 | 99 ± 0.46 | 99 ± 0.41 | 99 ± 0.66 | 99 ± 0.03 | 00 | > 24 | 00 | > 24 |  | CCc1cc(OC)ccc1-c1ccc(CC(NC(=O)[C@H](CC(=O)O)NC(=O)[C@H](CO)NC(=O)[C@@H](NC(=O)[C@H](Cc2ccccc2)NC(=O)[C@@H](NC(=O)CNC(=O)[C@H](CCC(N)=O)NC(=O)C2(NC(=O)[C@@H](N)Cc3c[nH]cn3)CC2)[C@@H](C)O)[C@@H](C)O)C(=O)NC(Cc2ccc(-c3ccccc3F)cc2)C(N)=O)cc1 (single isomer, unassigned) [compound 19]
00 | > 24 | 80 | 2 | 41 | 4 | 96 ± 0.09 | 99 ± 0.07 | 99 ± 0.04 | 99 ± 0.01 | 99 ± 0.08 | 00 | > 24 | 00 | > 24 |  | CCc1cc(OC)ccc1-c1ccc(CC(NC(=O)[C@H](CC(=O)O)NC(=O)[C@H](CO)NC(=O)[C@@H](NC(=O)[C@H](Cc2ccccc2)NC(=O)[C@@H](NC(=O)CNC(=O)[C@H](CCC(N)=O)NC(=O)C2(NC(=O)[C@@H](N)Cc3c[nH]cn3)CC2)[C@@H](C)O)[C@@H](C)O)C(=O)NC(Cc2ccc(-c3ccccc3C(F)(F)F)cc2)C(N)=O)cc1 (single isomer, unassigned) [compound 20]

Second part, the molecule before the results:

SMILES | % degradation in 24 h when incubated with DPP-IV enzyme (DPP IV) [%] | half-life (DPP IV) [h] | % degradation in 24 h when incubated with liver microsomes [1] [%] | half-life [1] [h] | % degradation in 24 h when incubated with simulated gastric fluid [2] [%] | half-life [2] [h] | Human GLP-1 R activity (cAMP release), % activity with respect to control (Human GLP-1 receptor; 1 nM test compound) [%] | Human GLP-1 R activity (cAMP release), % activity with respect to control (Human GLP-1 receptor; 10 nM test compound) [%] | Human GLP-1 R activity (cAMP release), % activity with respect to control (Human GLP-1 receptor; 100 nM test compound) [%] | Human GLP-1 R activity (cAMP release), % activity with respect to control (Human GLP-1 receptor; 1 μM test compound) [%] | Human GLP-1 R activity (cAMP release), % activity with respect to control (Human GLP-1 receptor; 10 μM test compound) [%] | % degradation in 24 h when incubated with human plasma [3] [%] | half-life [3] [h] | % degradation in 24 h when incubated with simulated intestinal fluid [4] [%] | half-life [4] [h] | half-life (t1/2) with liver microsomes [1]
CCc1cc(OC)ccc1-c1ccc(CC(NC(=O)[C@H](CC(=O)O)NC(=O)[C@H](CO)NC(=O)[C@@H](NC(=O)[C@H](Cc2ccccc2)NC(=O)[C@@H](NC(=O)CNC(=O)[C@H](CCC(N)=O)NC(=O)C(C)(C)NC(=O)[C@@H](N)Cc2c[nH]cn2)[C@@H](C)O)[C@@H](C)O)C(=O)NC(Cc2ccc(-c3ccccc3F)cc2)C(N)=O)cc1 (single isomer, unassigned) [compound 15] | 00 | > 24 | 85 | 2 | 45 | 4 | 66 ± 0.022 | 97 ± 0.46 | 99 ± 0.41 | 99 ± 0.66 | 99 ± 0.03 | 00 | > 24 | 00 | > 24 | 
CCc1cc(OC)ccc1-c1ccc(CC(NC(=O)[C@H](CC(=O)O)NC(=O)[C@H](CO)NC(=O)[C@@H](NC(=O)[C@H](Cc2ccccc2)NC(=O)[C@@H](NC(=O)CNC(=O)[C@H](CCC(N)=O)NC(=O)C(C)(C)NC(=O)[C@@H](N)Cc2c[nH]cn2)[C@@H](C)O)[C@@H](C)O)C(=O)NC(Cc2ccc(-c3ccccc3C(F)(F)F)cc2)C(N)=O)cc1 (single isomer, unassigned) [compound 16] | 00 | > 24 | 84 | 2 | 43 | 4 | 69 ± 0.09 | 98 ± 0.07 | 99 ± 0.04 | 99 ± 0.01 | 99 ± 0.08 | 00 | > 24 | 00 | > 24 | 
CCc1cc(OC)ccc1-c1ccc(CC(NC(=O)[C@H](CC(=O)O)NC(=O)[C@H](CO)NC(=O)[C@@H](NC(=O)C(C)(Cc2ccccc2F)NC(=O)[C@@H](NC(=O)CNC(=O)[C@H](CCC(N)=O)NC(=O)C(C)(C)NC(=O)[C@@H](N)Cc2c[nH]cn2)[C@@H](C)O)[C@@H](C)O)C(=O)NC(Cc2ccc(-c3ccccc3C)cc2)C(N)=O)cc1 (single isomer, unassigned) [compound 29] | 00 | > 24 | 35 |  | 00 | > 24 | 99 ± 0.12 | 99 ± 0.15 | 99 ± 0.18 | 99 ± 0.03 | 99 ± 0.09 | 00 | > 24 | 00 | > 24 | (5) h
